By Kd is commonly meant the equilibrium constant for the complex coming apart. Low values mean a tighter complex, high ones a looser complex.

3 compounds from article PMC2730839 (Biochemistry, 2009) can be followed below.

Common to all, as to format: binding
For experiment [1], the target named is T1, benzoylformate decarboxylase (BFDC) (Pseudomonas putida, UniProt P20906). The experiment can be described thus: circular dichroism titration at […] nm. Background: Circular dichroism is the unequal absorption of left and right circularly polarised light.
T1 sequence (P20906 whole entry): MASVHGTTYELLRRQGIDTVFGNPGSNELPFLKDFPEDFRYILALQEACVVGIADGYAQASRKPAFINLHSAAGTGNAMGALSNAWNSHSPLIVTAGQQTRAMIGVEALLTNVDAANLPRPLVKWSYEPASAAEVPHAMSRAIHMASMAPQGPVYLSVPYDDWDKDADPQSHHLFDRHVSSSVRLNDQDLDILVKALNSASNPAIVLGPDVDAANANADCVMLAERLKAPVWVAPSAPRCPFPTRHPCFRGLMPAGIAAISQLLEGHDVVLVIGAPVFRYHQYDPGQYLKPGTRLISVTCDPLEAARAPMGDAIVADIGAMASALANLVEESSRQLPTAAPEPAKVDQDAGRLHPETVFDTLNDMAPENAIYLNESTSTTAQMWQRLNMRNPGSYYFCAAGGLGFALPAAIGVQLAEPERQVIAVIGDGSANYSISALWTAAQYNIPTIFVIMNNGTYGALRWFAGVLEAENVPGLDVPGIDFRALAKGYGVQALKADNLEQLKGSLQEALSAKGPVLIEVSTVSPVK
Experiment [2] deals with T1, benzoylformate decarboxylase (BFDC). As to the kind of experiment: X-ray crystal structure.
The target is the same in experiment [3]. As to the kind of experiment: X-ray crystal structure. This is another data set of the same source.

Turning to `COP(=O)(O)C(C)=O` [MAP, methyl acetylphosphonate], the dissociation constant Kd in experiment [1] came out at 5490 µM. This lies in the millimolar range.
For the compound `COP(=O)(O)C(=O)c1ccccc1` [MBP, methyl benzoylphosphonate], in experiment [2], the Kd is 113 µM.
Consider `Cc1ncc(C[n+]2csc(CCOP(=O)([O-])OP(=O)(O)O)c2C)c(N)n1` [ThDP, thiamin diphosphate], for which, in experiment [3], the “X-ray crystal structure (1.37 Å), seen as its adduct with MBP” value is “the observed electron density is best fit by the covalent adduct between ThDP and MBP”.
